pKi: −log10 of the molar value. Residues, ends and D or L forms follow the SMILES beside them. *: point of attachment. Cbz = O=C(OCc1ccccc1)*
Columns and labels:
Format in all cases: cell-based
[1] = biological target: T1, 20S proteasome β1 subunit (caspase-like activity) (Rattus norvegicus, UniProt P28073); test: caspase-like activity (Z-LLE-MCA cleavage) in lysates of INS-1E cells treated with […] MG-132; conditions: read-out: % inhibition at 150 nM
T1 construct: gene Psmb6; with other subunits of the 20S/26S proteasome
T1 sequence (P28073 34-238): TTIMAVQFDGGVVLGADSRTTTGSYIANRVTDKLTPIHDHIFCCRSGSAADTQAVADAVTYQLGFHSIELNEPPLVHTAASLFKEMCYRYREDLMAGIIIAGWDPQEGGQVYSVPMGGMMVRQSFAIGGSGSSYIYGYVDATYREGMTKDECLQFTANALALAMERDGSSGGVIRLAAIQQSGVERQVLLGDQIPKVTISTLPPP

[2] = biological target: T2, 20S proteasome β2 subunit (trypsin-like activity) (Rattus norvegicus, UniProt Q9JHW0); test: trypsin-like activity (Z-ARR-MCA cleavage) in lysates of INS-1E cells treated with […] MG-132; conditions: read-out: % inhibition at 150 nM
T2 construct: gene Psmb7; with other subunits of the 20S/26S proteasome
T2 sequence (Q9JHW0 44-277): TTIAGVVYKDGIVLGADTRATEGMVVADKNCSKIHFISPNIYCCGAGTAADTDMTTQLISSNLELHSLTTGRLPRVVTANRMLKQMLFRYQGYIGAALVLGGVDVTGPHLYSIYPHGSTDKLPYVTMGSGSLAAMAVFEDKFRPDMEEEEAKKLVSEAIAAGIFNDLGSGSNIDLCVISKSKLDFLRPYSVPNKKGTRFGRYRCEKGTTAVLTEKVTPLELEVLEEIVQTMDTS

[3] = biological target: T3, 20S proteasome β5 subunit (chymotrypsin-like activity) (Rattus norvegicus, UniProt P28075); test: chymotrypsin-like activity (Suc-LLVY-MCA cleavage) in lysates of MG-132-treated INS-1E cells, dose-response
T3 construct: gene Psmb5; with other subunits of the 20S/26S proteasome
T3 sequence (P28075 60-263): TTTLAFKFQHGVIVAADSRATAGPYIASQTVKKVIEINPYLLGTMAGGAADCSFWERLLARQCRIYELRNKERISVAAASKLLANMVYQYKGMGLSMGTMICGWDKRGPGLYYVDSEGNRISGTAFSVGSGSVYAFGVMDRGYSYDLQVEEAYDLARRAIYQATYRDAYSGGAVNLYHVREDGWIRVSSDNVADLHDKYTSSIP

For CC(C)C[C@@H](C=O)NC(=O)[C@H](CC(C)C)NC(=O)[C@H](CC(C)C)NC(=O)OCc1ccccc1 [MG-132] (Cbz-Leu-Leu-Leu-aldehyde), the inhibition at 0.15 µM [1] was 80%, the inhibition at 0.15 µM [2] was 50% and the pKi [3] was 7.30.

Reference: PMC3958412, “Proteasome Dysfunction Mediates High Glucose-Induced Apoptosis in Rodent Beta Cells and Human Islets” (PLoS ONE, 2014)
